Assay results taken from patent US8916586B2, “Anti-angiogenic compound” (University College Dublin—National University of Ireland, …, priority 2011, dated 2014).
Entries after “also recorded” stand apart in the source; their conditions may differ.

Key:
[1] = system: dermal-derived normal human microvascular endothelial cells (HMVEC-d); experiment: In vitro HMVEC-d tube formation assay on Matrigel; assay type: cell-based; conditions: 100 nM, 20 hr
Description: (§1) HMVEC-d were purchased from Clonetics, San Diego, Calif., USA. Cells were maintained in complete Endothelial Cell Medium (Clonetics® EGM®-2-MV BulletKit®) containing 500 ml of Endothelial Cell Basal Medium-2 and supplemented with hEGF, 0.5 ml; Hydrocortisone, 0.2 ml; GA-1000, 0.5 ml; FBS, 25 ml; VEGF, 0.5 ml; hFGF-B, 2.0 ml; R3-IGF-1, 0.5 ml; Ascorbic Acid, 0.5 ml in a 37° C. humidified atmosphere of 5% CO2/95% air. HMVEC-d were used for experiments between passages 4-8.
Matrigel (Becton Dickenson) basement membrane matrix was used to examine HMVEC-d tube formation. Matrigel (50 μl) was plated in 96 well culture plate wells after thawing on ice and allowed to polymerise at 37° C. 5% CO2 humidified atmosphere for 1 hr. HMVEC-d were removed from culture, trypsinised, and resuspended in full strength EGM growth medium. Cells were seeded at a density of 50×10^4 cells/cm^2 and incubated for 20 hr at 37° C. 5% CO2 humidified atmosphere. Endothelial cell tubule formation was assessed using phase contrast microscopy and photographed. A connecting branch between two discrete ECs was counted as one tube. The tube analysis was determined from 3 sequential fields (magnification×10) focusing on the surface of the matrigel.

[2] = system: dermal-derived normal human microvascular endothelial cells (HMVEC-d); experiment: Crystal violet-based proliferation assay in HMVEC-d; assay type: cell-based; conditions: 100 nM (FIG. 13), 24 h
Description: as §1
The responses to different compound treatments were examined using a crystal violet-based proliferation assay to test the effects of the compounds on cell proliferation. HMVEC-d were seeded in 96-well plates in complete medium at a density of 25,000 cells/cm^2 and allowed to attach in a humidified atmosphere of 5% CO2, 95% air and at 37° C. Cells were treated with the compounds at different concentrations in replicates wells, and cell proliferation was evaluated after 24 h. At the specific time point medium was removed, cells were fixed with 1% glutaraldehyde and stained with a 0.1% crystal violet solution (Pro-lab diagnostics) for 30 min. The plates were then washed extensively in water and air dried. Cell-associated dye was extracted with a 1% solution of Triton X100 and the absorbance was determined at 550 nm using a plate reader (Multiskan Ascent, Lab Systems).

zebrafish larvae = experiment: Gross morphology / toxicity and eye morphology of treated zebrafish larvae; assay type: in vivo; conditions: for toxic effects / gross morphology of larvae: treated 1-5 dpf
Description: Prior to analysis of the intraocular vasculature, the control and treated larvae were observed under an Olympus SZX16 stereo zoom microscope and screened for general malformations. Overall patterning of the vasculature (fin, gut and intersegmental vessels) was examined for abnormalities (FIGS. 7B and 9A).
Visual function was assessed using the optokinetic response, a behavioural assay that tests the ability of larval zebrafish to track moving stripes (Brockerhoff 2006). […] For these experiments the compounds were screened in zebrafish larvae as described above except that the drug (compound 11B) was added at either day 1, 2, 3 or 4, and all treated larvae were analysed at day 5.

[3] = system: dermal-derived normal human microvascular endothelial cells (HMVEC-d); experiment: HMVEC-d cell migration (CIM-plate 16, xCELLigence); assay type: cell-based; conditions: 100 nM (FIG. 13)
Description: as §1
Continuous monitoring of HMVEC-d cultures cell migration was recorded using a CIM-plate 16 (RTCA DP Analyser, xCELLigence System, Roche) with 5% serum serving as chemoattractant and following the manufacturer's protocol. Each well is composed of an upper chamber, a membrane with an interdigitated gold electrode on the underside of the microporous membrane (facing the lower chamber) and a lower chamber. Cells that have migrated to the lower chamber containing the chemoattractant attach to the gold electrodes and generate electrical impedance. Impedance readings are taken from an electronic sensor plate and reflect their attachment levels. […] The upper chamber was then clicked into position and 30 μl of serum-free media were added to cover the membrane surface. […] 5% CO2 humidified atmosphere and the Cell Index (CI) was recorded every 15 min. […]

[4] = system: IL-1β secreted from explant cultures of human colorectal cancers; experiment: IL-1β secretion from human colorectal tumour explants (ELISA); assay type: cell-based; conditions: 72 hours; for level of IL-1β secreted by human tumour explants: 1 μM and 10 μM tested, concentration not given at place; for level of IL-1b secreted by human tumour explants: 10 μM
Description: Human colorectal tumour samples were taken directly from the pathology laboratory after surgery once adequate material was taken for diagnostic testing. The tumour samples were washed and stored in DMSO/tumour conditioning media (TCM). The samples were snap-frozen in liquid nitrogen and stored at −80° C. until compound testing was performed. Prior to compound testing, the tumours were thawed and incubated in fresh TCM for 24 hours. […] The TCM solutions were collected and stored at −20° C. and the remaining tumour explants were snap-frozen in liquid nitrogen and stored at −80° C. The protein content of each tumour sample was determined using the BCA protein assay. ELISA was used to determine the levels of VEGF, IL-8, MCP-1, GRO-α, IL-1β and IL-6. The secretion data were normalised according to the tumour sample's protein content.

| Compound | inhibition of HMVEC-d tubule formation [1] | effect on HMVEC-d proliferation [2] | wholemount morphology of larvae (zebrafish larvae; 10 μM, treated from day 2-5 or day 3-5) | toxic effects / gross morphology of larvae (zebrafish larvae) | morphology of eyes in transverse sections (layering of the retina, size of retina/lens, presence of optic nerve) (zebrafish larvae; treated larvae) | effect on HMVEC-d cell migration [3] | level of IL-1β secreted by human tumour explants [4] | level of IL-1b secreted by human tumour explants [4] | reduction of tubule formation compared to control [1] |
| --- | --- | --- | --- | --- | --- | --- | --- | --- | --- |
| Oc1ccccc1/C=C/c1ccc2ccccc2n1 [11B] | significantly inhibits | no significant effect; also recorded: neither 11B nor 11F had a significant effect | normal | do not induce toxic effects | normal | no significant effect; also recorded: neither 11B nor 11F had a significant effect; also recorded: neither 11B nor 11F had significant effects | significantly reduced | significantly reduces | – |
| COc1cc2c(C3CCCN3C)cnc(Cc3ccc4c(c3)OCO4)c2cc1OC (centres unmarked) [11F, 1-(1,3-benzodioxol-5-ylmethyl)-6,7-dimethoxy-4-(1-methyl-2-pyrrolidinyl)isoquinoline] | – | no significant effect; also recorded: neither 11B nor 11F had a significant effect | – | do not induce toxic effects | – | no significant effect; also recorded: neither 11B nor 11F had a significant effect; also recorded: neither 11B nor 11F had significant effects | significantly reduced | significantly reduced | 9% |
